Source: patent US20240108006A1, “PESTICIDALLY ACTIVE HETEROAROMATIC COMPOUNDS” (SYNGENTA CROP PROTECTION AG, priority 2021, published 2024)

Columns and labels:
Format in all cases: in vivo
Diabrotica balteata = assay: Example B2: Diabrotica balteata (corn root worm), maize sprouts, L2 larvae; conditions: 96 h, application rate of 200 ppm, 4 days after infestation, read-out: control in at least one of the two categories (mortality or growth inhibition)
In short: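 Maize sprouts on agar sprayed with aqueous test solutions made from 10,000 ppm DMSO stocks, dried, then infested with 6 to 10 L2 larvae per well. Mortality and growth inhibition assessed versus untreated samples 4 days after infestation; application rate 200 ppm.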

Myzus persicae [1] = assay: Example B7: Myzus persicae (green peach aphid), intrinsic activity, sucrose solution 24-well; conditions: 120 h, application rate of 12.5 ppm, 5 days after infestation, read-out: control (mortality)
In short: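 Compounds from 10,000 ppm DMSO stocks were mixed into sucrose solution in wells at a rate of 12.5 ppm. Aphid-infested pea seedlings were placed on a Parafilm membrane over the solution, so aphids fed through it. Mortality was scored 5 days after infestation.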

Myzus persicae [2] = assay: Example B11: Myzus persicae (green peach aphid), sucrose solution 96-well; conditions: 120 h, application rate of 50 ppm, 5 days after infestation
Source text: Example B11: Myzus persicae (Green Peach Aphid)
Test compounds prepared from 10,000 ppm DMSO stock solutions were applied by a liquid handling robot into 96-well microtiter plates and mixed with a sucrose solution. Parafilm was stretched over the 96-well microtiter plate and a plastic stencil with 96 holes was placed onto the plate. Aphids were sieved into the wells directly onto the Parafilm. The infested plates were closed with a gel blotting card and a second plastic stencil and then turned upside down. The samples were assessed for mortality 5 days after infestation.

Chilo suppressalis = assay: Example B1: Chilo suppressalis (striped rice stemborer), artificial diet, L2 larvae; conditions: 144 h, application rate of 200 ppm, 6 days after infestation, read-out: control in at least one of the three categories (mortality, anti-feedant effect, or growth inhibition)
In short: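 Artificial diet was treated with aqueous test solutions made from 10,000 ppm DMSO stocks, dried, then infested with L2 larvae (6-8 per well). Mortality, anti-feeding effect and growth inhibition were scored against untreated samples 6 days after infestation, and control was counted when any category exceeded untreated.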

Plutella xylostella [3] = assay: Example B8: Plutella xylostella (diamond back moth), artificial diet 24-well, eggs; conditions: 192 h, application rate of 200 ppm, 8 days after infestation, read-out: effect in at least one of the two categories (mortality or growth inhibition)
In short: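 Artificial diet in 24-well plates treated with aqueous dilutions of DMSO stock (10,000 ppm stock) and dried, then infested with Plutella eggs. Mortality and growth inhibition scored versus untreated samples 8 days after infestation.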

Spodoptera littoralis [4] = assay: Example B10: Spodoptera littoralis (Egyptian cotton leaf worm), uptake by lettuce roots from agar; conditions: 144 h, test rate of 12.5 ppm, 6 days after infestation, read-out: effect in at least one of the three categories (mortality, anti-feeding, or growth inhibition)
Source text: Example B10: Spodoptera littoralis (Egyptian Cotton Leaf Worm)
Test compounds were applied by pipette from 10,000 ppm DMSO stock solutions into 24-well plates and mixed with agar. Lettuce seeds were placed onto the agar and the multi well plate was closed by another plate which also contained agar. After 7 days the compound was absorbed by the roots and the lettuce grew into the lid plate. The lettuce leaves were then cut off into the lid plate. Spodoptera eggs were pipetted through a plastic stencil onto a humid gel blotting paper and the lid plate was closed with it. The samples were assessed for mortality, anti-feedant effect and growth inhibition in comparison to untreated samples 6 days after infestation.
The following compounds gave an effect of at least 80% in at least one of the three categories (mortality, anti-feeding, or growth inhibition) at a test rate of 12.5 ppm: […]

Euschistus heros = assay: Example B3: Euschistus heros (neotropical brown stink bug), soybean leaves, N2 nymphs; conditions: 120 h, application rate of 200 ppm, 5 days after infestation, read-out: control in at least one of the two categories (mortality or growth inhibition)
Spodoptera littoralis [5] = assay: Example B9: Spodoptera littoralis (Egyptian cotton leaf worm), cotton leaf discs, L1 larvae; conditions: foliar, 72 h, application rate of 200 ppm, 3 days after infestation, read-out: control in at least one of the three categories (mortality, anti-feedant effect, or growth inhibition)
In short: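 Cotton leaf discs on agar sprayed with aqueous test solutions from 10,000 ppm DMSO stocks, dried, then infested with five L1 larvae. Mortality, anti-feeding and growth inhibition scored against untreated samples 3 days after infestation.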

Plutella xylostella [6] = assay: Example B12: Plutella xylostella (diamondback moth), artificial diet 96-well; conditions: 216 h, application rate of 500 ppm, 9 days after infestation
Description: Example B12: Plutella xylostella (Diamondback Moth)
96-well microtiter plates containing artificial diet were treated with aqueous test solutions, prepared from 10,000 ppm DMSO stock solutions, by a liquid handling robot. After drying, eggs (-30 per well) were infested onto a netted lid which was suspended above the diet. The eggs hatch and L1 larvae move down to the diet. The samples were assessed for mortality 9 days after infestation.
The following compounds gave an effect of at least 80% average mortality at an application rate of 500 ppm: […]

Tetranychus urticae = assay: Example B13: Tetranychus urticae (two-spotted spider mite), feeding/contact activity; conditions: 192 h, read-out: mortality on mixed population (mobile stages)
Description: Example B13: Tetranychus urticae (Two-Spotted Spider Mite):Feeding/Contact Activity
Bean leaf discs on agar in 24-well microtiter plates were sprayed with aqueous test solutions prepared from 10,000 ppm DMSO stock solutions. After drying the leaf discs were infested with a mite population of mixed ages. The samples were assessed for mortality on mixed population (mobile stages) 8 days after infestation.

Myzus persicae [7] = assay: Example B5: Myzus persicae (green peach aphid), feeding/contact activity; conditions: 144 h, application rate of 200 ppm, 6 days after infestation
Description: Example B5: Myzus persicae (Green Peach Aphid):Feeding/Contact Activity
Sunflower leaf discs were placed onto agar in a 24-well microtiter plate and sprayed with aqueous test solutions prepared from 10,000 ppm DMSO stock solutions. After drying, the leaf discs were infested with an aphid population of mixed ages. The samples were assessed for mortality 6 days after infestation.

CC(NC(=O)Nc1ccc(C(F)(F)F)cc1Cl)c1ncnn1-c1ncccn1 (centres unmarked) [Example P5, 1-[2-chloro-4-(trifluoromethyl)phenyl]-3-[1-(2-pyrimidin-2-yl-1,2,4-triazol-3-yl)ethyl]urea]
≥ 80%: percent control (mortality or growth inhibition) at 200 ppm (Diabrotica balteata) | mortality at 12.5 ppm (Myzus persicae [1]) | mortality at 50 ppm (Myzus persicae [2]) | percent control (mortality, anti-feedant effect or growth inhibition) at 200 ppm (Chilo suppressalis) | percent effect (mortality or growth inhibition) at 200 ppm (Plutella xylostella [3]) | percent effect (mortality, anti-feeding or growth inhibition) at 12.5 ppm (Spodoptera littoralis [4]) | percent control (mortality or growth inhibition) at 200 ppm (Euschistus heros) | percent control (mortality, anti-feedant effect or growth inhibition) at 200 ppm (Spodoptera littoralis [5]) | mortality at 500 ppm (Plutella xylostella [6])

C[C@H](NC(=O)Nc1cnc(C(F)(F)F)cc1Cl)c1ncnn1-c1cnccn1 [Example P277, 1-[4-chloro-6-(trifluoromethyl)-3-pyridyl]-3-[(1S)-1-(2-pyrazin-2-yl-1,2,4-triazol-3-yl)ethyl]urea]
≥ 80%: percent control (mortality or growth inhibition) at 200 ppm (Diabrotica balteata) | mortality at 12.5 ppm (Myzus persicae [1]) | mortality at 200 ppm (Tetranychus urticae) | percent control (mortality, anti-feedant effect or growth inhibition) at 200 ppm (Chilo suppressalis) | mortality at 200 ppm (Myzus persicae [7]) | percent effect (mortality or growth inhibition) at 200 ppm (Plutella xylostella [3]) | percent control (mortality or growth inhibition) at 200 ppm (Euschistus heros) | percent control (mortality, anti-feedant effect or growth inhibition) at 200 ppm (Spodoptera littoralis [5])
